Key:
Experiment in all cases: biochemical
Format in all cases: biochemical
382 unique human kinases [1] = target: T1, 382 unique human kinases (Homo sapiens, UniProt P22607, K650Q); settings: kinase FGFR3 (K650Q), compound 10 uM; for remaining activity at 10 µM: read-out: % Enzyme Activity (relative to DMSO controls)
T1 construct: purchased Reaction Biology (HotSpot contract assay)

382 unique human kinases [2] = target: T2, 382 unique human kinases (Homo sapiens, UniProt Q05397); settings: kinase FAK/PTK2, compound 10 uM; for remaining activity at 10 µM: read-out: % Enzyme Activity (relative to DMSO controls)
T2 construct: purchased Reaction Biology (HotSpot contract assay)

382 unique human kinases [3] = target: T3, 382 unique human kinases (Homo sapiens, UniProt Q15759); settings: kinase P38b/MAPK11, compound 10 uM; for remaining activity at 10 µM: read-out: % Enzyme Activity (relative to DMSO controls)
T3 construct: purchased Reaction Biology (HotSpot contract assay)

382 unique human kinases [4] = target: T4, 382 unique human kinases (Homo sapiens, UniProt Q9NRM7); settings: LATS2, 10 uM; for remaining activity at 10 µM: read-out: % Enzyme Activity (relative to DMSO controls)
T4 construct: purchased Reaction Biology (HotSpot contract assay)
T4 sequence (Q9NRM7 1-1088): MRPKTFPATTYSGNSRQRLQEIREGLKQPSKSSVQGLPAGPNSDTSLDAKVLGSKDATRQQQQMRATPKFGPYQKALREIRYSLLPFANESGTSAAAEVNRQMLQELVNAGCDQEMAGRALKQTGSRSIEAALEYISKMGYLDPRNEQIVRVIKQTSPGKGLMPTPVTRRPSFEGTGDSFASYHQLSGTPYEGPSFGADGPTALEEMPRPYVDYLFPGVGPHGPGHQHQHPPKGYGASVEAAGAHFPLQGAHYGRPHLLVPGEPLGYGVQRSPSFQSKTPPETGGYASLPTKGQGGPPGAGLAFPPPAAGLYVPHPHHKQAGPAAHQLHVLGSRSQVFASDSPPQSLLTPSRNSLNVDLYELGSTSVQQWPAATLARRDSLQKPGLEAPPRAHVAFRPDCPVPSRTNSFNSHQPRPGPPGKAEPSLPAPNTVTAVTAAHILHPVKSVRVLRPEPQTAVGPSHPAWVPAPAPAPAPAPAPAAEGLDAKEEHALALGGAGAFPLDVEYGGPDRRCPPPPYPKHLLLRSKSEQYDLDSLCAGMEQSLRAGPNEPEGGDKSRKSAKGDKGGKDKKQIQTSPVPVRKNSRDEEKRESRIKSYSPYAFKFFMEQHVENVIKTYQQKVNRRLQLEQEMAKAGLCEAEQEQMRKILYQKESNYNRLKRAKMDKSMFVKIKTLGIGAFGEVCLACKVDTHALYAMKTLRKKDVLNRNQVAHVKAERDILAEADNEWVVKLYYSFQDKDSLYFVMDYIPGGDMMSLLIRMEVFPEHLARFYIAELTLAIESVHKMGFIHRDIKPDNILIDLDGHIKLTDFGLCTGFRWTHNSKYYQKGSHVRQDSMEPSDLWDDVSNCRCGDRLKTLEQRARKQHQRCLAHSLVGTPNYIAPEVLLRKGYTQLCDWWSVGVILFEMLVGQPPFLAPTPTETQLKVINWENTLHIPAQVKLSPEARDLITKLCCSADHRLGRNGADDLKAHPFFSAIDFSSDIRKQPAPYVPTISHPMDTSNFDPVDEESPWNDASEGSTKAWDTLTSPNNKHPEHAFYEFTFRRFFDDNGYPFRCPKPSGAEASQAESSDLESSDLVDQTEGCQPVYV

382 unique human kinases [5] = target: T5, 382 unique human kinases (Homo sapiens, UniProt Q02763, R849W); settings: kinase TIE2 (R849W), compound 10 uM; for remaining activity at 10 µM: read-out: % Enzyme Activity (relative to DMSO controls)
T5 construct: purchased Reaction Biology (HotSpot contract assay)

382 unique human kinases [6] = target: T6, 382 unique human kinases (Homo sapiens, UniProt Q13237); settings: PKG2/PRKG2; compound at 10 uM; duplicate values; read-out: % Enzyme Activity (relative to DMSO controls)
T6 construct: purchased Reaction Biology (HotSpot contract assay)

382 unique human kinases [7] = target: T7, 382 unique human kinases (Homo sapiens, UniProt Q86UX6); settings: STK32C/YANK3, 10 uM; for remaining activity at 10 µM: read-out: % Enzyme Activity (relative to DMSO controls)
T7 construct: purchased Reaction Biology (HotSpot contract assay)

382 unique human kinases [8] = target: T8, 382 unique human kinases (Homo sapiens, UniProt P27361); settings: ERK1, 10 uM; for remaining activity at 10 µM: read-out: % Enzyme Activity (relative to DMSO controls)
T8 construct: purchased Reaction Biology (HotSpot contract assay)

382 unique human kinases [9] = target: T9, 382 unique human kinases (Homo sapiens, UniProt P10721, V559D/V654A); settings: c-Kit (V559D/V654A), 10 uM; for remaining activity at 10 µM: read-out: % Enzyme Activity (relative to DMSO controls)
T9 construct: purchased Reaction Biology (HotSpot contract assay)

382 unique human kinases [10] = target: T10, 382 unique human kinases (Homo sapiens, UniProt P05771); settings: PKCb1, 10 uM; for remaining activity at 10 µM: read-out: % Enzyme Activity (relative to DMSO controls)
T10 construct: purchased Reaction Biology (HotSpot contract assay)

382 unique human kinases [11] = target: T11, 382 unique human kinases (Homo sapiens, UniProt O75914); settings: PAK3, 10 uM; for remaining activity at 10 µM: read-out: % Enzyme Activity (relative to DMSO controls)
T11 construct: purchased Reaction Biology (HotSpot contract assay)

382 unique human kinases [12] = target: T12, 382 unique human kinases (Homo sapiens, UniProt Q16584); settings: MLK3/MAP3K11, 10 uM; for remaining activity at 10 µM: read-out: % Enzyme Activity (relative to DMSO controls)
T12 construct: purchased Reaction Biology (HotSpot contract assay)

382 unique human kinases [13] = target: T13, 382 unique human kinases (Homo sapiens, UniProt P49840); settings: GSK3a, [ATP] 30 µM, compound 10 uM; for remaining activity at 10 µM: read-out: % Enzyme Activity (relative to DMSO controls)
T13 construct: purchased Reaction Biology (HotSpot contract assay)

382 unique human kinases [14] = target: T14, 382 unique human kinases (Homo sapiens, UniProt P15056); settings: BRAF, 10 uM; for remaining activity at 10 µM: read-out: % Enzyme Activity (relative to DMSO controls)
T14 construct: purchased Reaction Biology (HotSpot contract assay)
T14 sequence (P15056 whole entry): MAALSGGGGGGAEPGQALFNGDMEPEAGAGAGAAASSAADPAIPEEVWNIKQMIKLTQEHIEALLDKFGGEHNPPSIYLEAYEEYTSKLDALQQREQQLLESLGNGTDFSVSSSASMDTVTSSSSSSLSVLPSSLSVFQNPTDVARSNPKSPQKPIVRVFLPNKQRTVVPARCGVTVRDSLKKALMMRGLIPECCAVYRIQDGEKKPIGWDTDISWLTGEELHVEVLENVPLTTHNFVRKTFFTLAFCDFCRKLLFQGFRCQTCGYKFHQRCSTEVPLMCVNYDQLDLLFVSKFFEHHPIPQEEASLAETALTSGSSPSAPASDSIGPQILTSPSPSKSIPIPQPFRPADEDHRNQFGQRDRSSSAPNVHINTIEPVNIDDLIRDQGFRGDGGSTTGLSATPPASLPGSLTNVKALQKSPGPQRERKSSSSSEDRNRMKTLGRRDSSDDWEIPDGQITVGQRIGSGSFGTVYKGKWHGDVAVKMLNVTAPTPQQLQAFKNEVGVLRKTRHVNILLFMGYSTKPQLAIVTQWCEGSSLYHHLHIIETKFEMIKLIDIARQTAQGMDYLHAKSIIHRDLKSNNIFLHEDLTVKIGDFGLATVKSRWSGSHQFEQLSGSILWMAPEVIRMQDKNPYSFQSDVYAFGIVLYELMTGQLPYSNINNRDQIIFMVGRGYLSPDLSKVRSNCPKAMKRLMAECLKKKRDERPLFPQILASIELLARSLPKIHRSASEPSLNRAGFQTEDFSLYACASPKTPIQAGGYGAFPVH

T7 sequence (Q86UX6 whole entry): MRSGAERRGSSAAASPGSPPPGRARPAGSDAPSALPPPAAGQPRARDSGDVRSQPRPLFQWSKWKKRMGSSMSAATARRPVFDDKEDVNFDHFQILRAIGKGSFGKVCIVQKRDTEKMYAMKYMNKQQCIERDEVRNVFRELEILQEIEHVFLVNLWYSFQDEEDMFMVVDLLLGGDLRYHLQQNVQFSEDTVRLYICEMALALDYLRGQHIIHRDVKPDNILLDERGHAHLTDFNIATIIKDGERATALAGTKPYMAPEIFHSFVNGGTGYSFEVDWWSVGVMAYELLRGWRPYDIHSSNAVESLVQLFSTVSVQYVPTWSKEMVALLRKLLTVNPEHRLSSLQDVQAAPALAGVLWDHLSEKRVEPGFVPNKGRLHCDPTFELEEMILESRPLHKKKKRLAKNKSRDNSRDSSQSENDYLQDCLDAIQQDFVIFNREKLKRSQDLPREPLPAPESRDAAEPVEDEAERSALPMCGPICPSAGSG
T10 sequence (P05771 whole entry): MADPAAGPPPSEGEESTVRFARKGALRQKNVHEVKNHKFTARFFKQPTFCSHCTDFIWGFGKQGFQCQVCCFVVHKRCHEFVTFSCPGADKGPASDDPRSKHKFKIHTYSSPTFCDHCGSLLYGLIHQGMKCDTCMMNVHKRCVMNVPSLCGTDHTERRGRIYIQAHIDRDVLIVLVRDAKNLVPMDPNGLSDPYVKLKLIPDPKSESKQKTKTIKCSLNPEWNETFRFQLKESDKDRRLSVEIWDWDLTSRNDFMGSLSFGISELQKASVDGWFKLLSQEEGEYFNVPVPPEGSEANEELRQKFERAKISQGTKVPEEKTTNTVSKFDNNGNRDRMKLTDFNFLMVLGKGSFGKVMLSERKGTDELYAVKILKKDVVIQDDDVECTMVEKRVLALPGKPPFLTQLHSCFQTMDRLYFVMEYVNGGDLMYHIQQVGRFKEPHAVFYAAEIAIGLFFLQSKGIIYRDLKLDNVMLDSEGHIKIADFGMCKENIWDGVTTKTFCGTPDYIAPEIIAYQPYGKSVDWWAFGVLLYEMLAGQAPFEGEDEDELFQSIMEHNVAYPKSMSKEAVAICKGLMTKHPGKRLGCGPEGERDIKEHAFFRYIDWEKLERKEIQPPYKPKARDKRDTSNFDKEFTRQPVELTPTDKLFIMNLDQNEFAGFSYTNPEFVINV
T8 sequence (P27361 whole entry): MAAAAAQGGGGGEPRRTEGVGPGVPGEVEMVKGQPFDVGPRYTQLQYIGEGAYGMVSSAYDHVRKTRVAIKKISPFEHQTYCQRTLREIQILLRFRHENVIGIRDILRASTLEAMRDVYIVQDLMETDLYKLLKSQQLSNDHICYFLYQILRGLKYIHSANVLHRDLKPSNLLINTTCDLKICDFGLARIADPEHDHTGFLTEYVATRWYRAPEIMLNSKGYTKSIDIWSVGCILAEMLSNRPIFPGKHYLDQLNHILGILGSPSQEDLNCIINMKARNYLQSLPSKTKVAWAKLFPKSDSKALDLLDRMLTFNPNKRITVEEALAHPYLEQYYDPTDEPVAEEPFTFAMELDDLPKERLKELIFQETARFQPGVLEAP
T9 sequence (P10721 26-976 V559D/V654A): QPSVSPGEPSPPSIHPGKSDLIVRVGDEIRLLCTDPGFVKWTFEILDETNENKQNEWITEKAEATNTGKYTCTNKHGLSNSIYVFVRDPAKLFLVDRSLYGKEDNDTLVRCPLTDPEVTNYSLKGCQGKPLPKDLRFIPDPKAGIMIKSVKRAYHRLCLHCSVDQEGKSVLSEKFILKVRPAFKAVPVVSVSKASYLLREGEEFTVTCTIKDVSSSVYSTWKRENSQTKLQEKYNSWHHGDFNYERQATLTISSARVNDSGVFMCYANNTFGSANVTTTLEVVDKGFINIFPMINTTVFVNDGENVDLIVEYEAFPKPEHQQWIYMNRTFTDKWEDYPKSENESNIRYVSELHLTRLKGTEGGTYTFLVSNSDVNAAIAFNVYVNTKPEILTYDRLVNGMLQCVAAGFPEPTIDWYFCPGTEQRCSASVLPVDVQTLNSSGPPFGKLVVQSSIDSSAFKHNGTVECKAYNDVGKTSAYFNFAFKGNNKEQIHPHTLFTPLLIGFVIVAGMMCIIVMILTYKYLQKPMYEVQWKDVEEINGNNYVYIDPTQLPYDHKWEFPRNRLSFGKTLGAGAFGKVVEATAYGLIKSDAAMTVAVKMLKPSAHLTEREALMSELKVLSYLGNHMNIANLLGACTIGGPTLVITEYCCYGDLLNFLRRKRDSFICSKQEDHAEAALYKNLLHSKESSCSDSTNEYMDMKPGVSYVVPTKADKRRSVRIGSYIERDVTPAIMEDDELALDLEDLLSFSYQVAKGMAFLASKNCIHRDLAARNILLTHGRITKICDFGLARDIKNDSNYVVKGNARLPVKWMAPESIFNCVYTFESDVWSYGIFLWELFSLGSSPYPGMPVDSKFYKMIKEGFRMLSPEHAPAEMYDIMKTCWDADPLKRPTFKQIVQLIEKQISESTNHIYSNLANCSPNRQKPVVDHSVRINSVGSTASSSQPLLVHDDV
T12 sequence (Q16584 whole entry): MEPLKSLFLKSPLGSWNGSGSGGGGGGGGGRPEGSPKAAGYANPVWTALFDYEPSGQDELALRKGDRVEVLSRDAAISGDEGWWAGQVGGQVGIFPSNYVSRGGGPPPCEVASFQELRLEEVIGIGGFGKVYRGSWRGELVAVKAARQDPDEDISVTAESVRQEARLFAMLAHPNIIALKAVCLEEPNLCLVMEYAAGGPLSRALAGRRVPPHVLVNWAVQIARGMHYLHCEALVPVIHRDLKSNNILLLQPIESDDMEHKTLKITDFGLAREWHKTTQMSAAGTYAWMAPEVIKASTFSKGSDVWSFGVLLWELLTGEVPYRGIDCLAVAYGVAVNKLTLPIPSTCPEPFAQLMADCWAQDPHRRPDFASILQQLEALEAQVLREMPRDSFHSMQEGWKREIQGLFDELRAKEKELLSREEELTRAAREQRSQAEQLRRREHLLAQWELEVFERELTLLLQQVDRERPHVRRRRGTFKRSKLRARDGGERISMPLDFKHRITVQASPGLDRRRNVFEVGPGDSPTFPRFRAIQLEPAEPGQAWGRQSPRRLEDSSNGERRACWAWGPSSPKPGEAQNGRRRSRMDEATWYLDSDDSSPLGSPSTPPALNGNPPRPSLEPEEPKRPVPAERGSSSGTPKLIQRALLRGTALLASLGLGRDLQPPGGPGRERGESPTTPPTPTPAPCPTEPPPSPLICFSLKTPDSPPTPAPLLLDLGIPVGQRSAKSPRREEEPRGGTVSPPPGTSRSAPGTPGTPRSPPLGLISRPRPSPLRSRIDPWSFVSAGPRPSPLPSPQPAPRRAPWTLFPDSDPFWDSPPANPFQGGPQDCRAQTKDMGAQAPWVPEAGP
T13 sequence (P49840 whole entry): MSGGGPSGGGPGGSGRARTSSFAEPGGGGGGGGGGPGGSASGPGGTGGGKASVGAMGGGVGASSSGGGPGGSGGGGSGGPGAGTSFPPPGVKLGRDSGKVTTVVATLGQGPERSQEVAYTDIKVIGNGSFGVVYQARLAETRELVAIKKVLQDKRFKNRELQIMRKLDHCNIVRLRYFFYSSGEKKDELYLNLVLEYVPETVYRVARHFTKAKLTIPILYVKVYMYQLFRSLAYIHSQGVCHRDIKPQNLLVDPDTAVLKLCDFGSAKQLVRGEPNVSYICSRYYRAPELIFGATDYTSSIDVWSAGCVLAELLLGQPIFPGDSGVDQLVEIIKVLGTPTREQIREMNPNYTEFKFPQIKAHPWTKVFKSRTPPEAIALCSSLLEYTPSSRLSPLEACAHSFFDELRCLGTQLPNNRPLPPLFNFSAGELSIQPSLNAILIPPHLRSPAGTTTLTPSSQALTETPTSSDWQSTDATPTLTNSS
T3 sequence (Q15759 whole entry): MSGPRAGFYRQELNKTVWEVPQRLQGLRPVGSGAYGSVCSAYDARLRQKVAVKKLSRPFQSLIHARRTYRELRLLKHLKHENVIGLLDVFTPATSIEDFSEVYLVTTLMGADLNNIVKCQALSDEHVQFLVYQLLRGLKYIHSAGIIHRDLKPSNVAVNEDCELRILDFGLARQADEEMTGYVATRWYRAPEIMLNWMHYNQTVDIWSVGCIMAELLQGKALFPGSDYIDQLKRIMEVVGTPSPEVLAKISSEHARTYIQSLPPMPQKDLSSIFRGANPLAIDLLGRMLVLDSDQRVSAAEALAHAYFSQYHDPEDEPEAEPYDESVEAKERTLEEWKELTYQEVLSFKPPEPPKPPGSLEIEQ

Row | SMILES | remaining activity at 10 µM (382 unique human kinases [1]) [%] | remaining activity at 10 µM (382 unique human kinases [2]) [%] | remaining activity at 10 µM (382 unique human kinases [3]) [%] | remaining activity at 10 µM (382 unique human kinases [4]) [%] | remaining activity at 10 µM (382 unique human kinases [5]) [%] | remaining activity at 10 µM (382 unique human kinases [6]) [%] | remaining activity at 10 µM (382 unique human kinases [7]) [%] | remaining activity at 10 µM (382 unique human kinases [8]) [%] | remaining activity at 10 µM (382 unique human kinases [9]) [%] | remaining activity at 10 µM (382 unique human kinases [10]) [%] | remaining activity at 10 µM (382 unique human kinases [11]) [%] | remaining activity at 10 µM (382 unique human kinases [12]) [%] | remaining activity at 10 µM (382 unique human kinases [13]) [%] | remaining activity at 10 µM (382 unique human kinases [14]) [%] | other results
1 | CC(C)c1cc(-c2n[nH]c(=O)n2-c2ccc3c(ccn3C)c2)c(O)cc1O [Ganetespib (STA9090)] | 84.5 | 91.3 | 108 | 74.3 | 83.1 | 108 | 109 | – | – | – | – | – | – | – | –
2 | CC(C)c1cc(-c2n[nH]c(=O)n2-c2ccc3c(ccn3C)c2)c(O)cc1O [Ganetespib] | – | – | – | – | – | – | – | 101 | 91.1 | 109 | 98.1 | 91 | 21.9 | 98.1 | –
3 | CCNC(=O)c1noc(-c2cc(C(C)C)c(O)cc2O)c1-c1ccc(CN2CCOCC2)cc1 [Luminespib (AUY-922)] | 107 | 98 | 86.3 | 94.8 | 90.9 | 104 | 69.9 | – | – | – | – | – | – | – | % Enzyme Activity (relative to DMSO controls) (382 unique human kinases [1]): 105.48%; % Enzyme Activity (relative to DMSO controls) (382 unique human kinases [2]): 96.62%; % Enzyme Activity (relative to DMSO controls) (382 unique human kinases [3]): 82.81%; % Enzyme Activity (relative to DMSO controls) (382 unique human kinases [4]): 91.88%; % Enzyme Activity (relative to DMSO controls) (382 unique human kinases [5]): 89.68%; % Enzyme Activity (relative to DMSO controls) (382 unique human kinases [7]): 69.42%
4 | CCNC(=O)c1noc(-c2cc(C(C)C)c(O)cc2O)c1-c1ccc(CN2CCOCC2)cc1 [Luminespib] | – | – | – | – | – | – | – | 96.1 | 103 | 93.8 | 108 | 104 | 96.4 | 105 | % Enzyme Activity (relative to DMSO controls) (382 unique human kinases [8]): 95.87%; % Enzyme Activity (relative to DMSO controls) (382 unique human kinases [9]): 102.17%; % Enzyme Activity (relative to DMSO controls) (382 unique human kinases [10]): 93.07%; % Enzyme Activity (relative to DMSO controls) (382 unique human kinases [11]): 107.82%; % Enzyme Activity (relative to DMSO controls) (382 unique human kinases [12]): 103.89%; % Enzyme Activity (relative to DMSO controls) (382 unique human kinases [13]): 93.84%; % Enzyme Activity (relative to DMSO controls) (382 unique human kinases [14]): 103.97%
